Reference: US6610299B1, “Glycosyl-etoposide prodrugs, a process for preparation thereof and the use thereof in combination with functionalized tumor-specific enzyme conjugates” (Aventis Pharma Deutschland GmbH, priority 1989, dated 2003)

Key:
[1] = system: tumor-specific antibody-glucosidase conjugate; details: in vitro
[2] = system: alpha-glucosidase; details: in vitro, enzyme alpha-glucosidase
[3] = molecular target: T1, human β-glucuronidase (Homo sapiens, UniProt P08236); test: prodrug cleavage by β-glucuronidase (human, recombinant), HPLC; assay type: biochemical
T1 sequence (P08236 23-651): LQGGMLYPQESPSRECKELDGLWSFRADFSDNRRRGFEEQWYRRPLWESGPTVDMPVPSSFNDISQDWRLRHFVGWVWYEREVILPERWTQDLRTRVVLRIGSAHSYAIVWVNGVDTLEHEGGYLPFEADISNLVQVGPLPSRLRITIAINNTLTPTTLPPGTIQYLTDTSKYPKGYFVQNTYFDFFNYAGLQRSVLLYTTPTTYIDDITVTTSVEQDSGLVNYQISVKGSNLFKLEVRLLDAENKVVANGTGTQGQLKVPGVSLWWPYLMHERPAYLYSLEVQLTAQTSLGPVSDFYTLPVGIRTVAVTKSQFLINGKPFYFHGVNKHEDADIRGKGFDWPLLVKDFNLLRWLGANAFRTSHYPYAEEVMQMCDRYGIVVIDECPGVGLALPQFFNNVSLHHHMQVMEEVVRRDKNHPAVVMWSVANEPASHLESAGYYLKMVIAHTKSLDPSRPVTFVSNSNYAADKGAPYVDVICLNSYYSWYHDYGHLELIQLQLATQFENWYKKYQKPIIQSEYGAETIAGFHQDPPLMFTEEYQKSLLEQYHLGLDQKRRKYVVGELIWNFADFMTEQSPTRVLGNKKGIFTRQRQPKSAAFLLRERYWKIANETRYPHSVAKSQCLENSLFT
Protocol: (§1) It was shown in Example 17 that the β-glucuronidase portion of the fusion protein is able, like the native human enzyme, to cleave the β-glucuronide of 4-methylumbelliferol. In the investigations which are described hereinafter, the substrate used for the enzymatic cleavage was a β-glucuronide, linked via a spacer group, of the cytostatic daunomycin. The specific procedure for these investigations was as follows:
(§2) 4 mg of the compound N-(4-hydroxy-3-nitrobenzyloxy-carbonyl)daunorubicin β-D-glucuronide (prodrug), which is described in French Patent Application (No. d'Enregistrement National: 9105326) were dissolved in 1 ml of 20 mM phosphate buffer, pH 7.2. 35 μl of the fusion protein (Example 21) or of human β-glucuronidase (total concentration in each case 6.5 U/ml; 1 U=cleavage of 1 μmol of 4-methyl-umbelliferol/min at 37° C.) were pipetted into 5 μl portions of this substrate solution and incubated in the dark at 37° C. Samples (5 μl) of the incubation mixture were removed after various times and immediately analyzed by high pressure liquid chromatography under the following conditions:
(§3) Nucleosil 100 RP 18, 5 μm particle diameter, 125×4.6 mm
(§4) Gradient of solution A (100% acetonitrile) and solution B (20 mM phosphate buffer pH.3.0)
(§5) Detection: fluorescence, excitation 495 nm, emission […]
(§6) Data analysis: Beckman System Gold Software

[4] = molecular target: T2, 431/26 hum VH huβGlc 1H fusion protein (Homo sapiens, UniProt P01860+P08236); test: prodrug cleavage by β-glucuronidase (fusion protein), HPLC; assay type: biochemical
T2 construct: made in house; host or cells: BHK cells
Protocol: as §1, §2, §3, §4, §5, §6

T2 sequence (P01860+P08236 fused): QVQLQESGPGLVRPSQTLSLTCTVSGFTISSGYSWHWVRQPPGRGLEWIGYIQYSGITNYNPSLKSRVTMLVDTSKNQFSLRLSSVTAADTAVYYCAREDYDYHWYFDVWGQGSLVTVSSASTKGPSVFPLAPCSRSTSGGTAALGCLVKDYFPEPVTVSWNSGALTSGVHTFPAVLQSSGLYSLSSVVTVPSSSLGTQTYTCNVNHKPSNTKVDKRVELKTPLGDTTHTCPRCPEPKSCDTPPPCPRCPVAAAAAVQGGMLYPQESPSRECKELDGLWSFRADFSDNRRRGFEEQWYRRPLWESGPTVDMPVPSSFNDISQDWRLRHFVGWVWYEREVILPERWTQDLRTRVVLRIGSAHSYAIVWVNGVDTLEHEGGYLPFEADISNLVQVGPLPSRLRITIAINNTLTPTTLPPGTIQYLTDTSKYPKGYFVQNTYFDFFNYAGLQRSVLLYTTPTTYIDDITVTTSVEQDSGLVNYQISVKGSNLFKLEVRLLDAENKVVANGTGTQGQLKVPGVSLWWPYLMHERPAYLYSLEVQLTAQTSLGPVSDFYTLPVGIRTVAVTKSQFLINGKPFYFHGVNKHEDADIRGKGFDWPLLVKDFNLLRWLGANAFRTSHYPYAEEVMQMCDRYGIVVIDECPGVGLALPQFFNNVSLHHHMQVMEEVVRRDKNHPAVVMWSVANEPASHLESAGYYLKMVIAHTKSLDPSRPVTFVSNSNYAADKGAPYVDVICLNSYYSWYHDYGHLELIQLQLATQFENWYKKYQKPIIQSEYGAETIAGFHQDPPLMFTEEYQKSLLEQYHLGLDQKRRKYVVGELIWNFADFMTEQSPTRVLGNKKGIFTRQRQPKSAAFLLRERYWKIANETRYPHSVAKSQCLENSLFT

## 4′-O-alpha-D-glucopyranosyl-etoposide
[1]
  cleavage into etoposide and D-glucose: can be cleaved in vitro into etoposide and D-glucose
[2]
  cleavage into etoposide and D-glucose: can be cleaved in vitro into etoposide and D-glucose

## COc1cccc2c1C(=O)c1c(O)c3c(c(O)c1C2=O)C[C@@](O)(C(C)=O)C[C@@H]3O[C@H]1C[C@H](NC(=O)OCc2ccc(O[C@@H]3O[C@H](C(=O)O)[C@@H](O)[C@H](O)[C@H]3O)c([N+](=O)[O-])c2)[C@H](O)[C@H](C)O1 [Prodrug, N-(4-hydroxy-3-nitrobenzyloxy-carbonyl)daunorubicin β-D-glucuronide]
[3]; t 0 min
  DNM area % (liberated daunomycin): 0.8 area %
  Prodrug area %: 99.2 area %
[3]; t 57 min
  DNM area % (liberated daunomycin): 64.0 area %
  Prodrug area %: 36.0 area %
[3]; t 130 min
  DNM area % (liberated daunomycin): 89.7 area %
  Prodrug area %: 10.3 area %
[3]; t 227 min
  DNM area % (liberated daunomycin): 90.7 area %
  Prodrug area %: 9.3 area %
[4]; t 0 min
  DNM area % (liberated daunomycin): 1.1 area %
  Prodrug area %: 98.9 area %
[4]; t 50 min
  DNM area % (liberated daunomycin): 18.9 area %
  Prodrug area %: 81.1 area %
[4]; t 135 min
  DNM area % (liberated daunomycin): 48.3 area %
  Prodrug area %: 51.7 area %
[4]; t 190 min
  DNM area % (liberated daunomycin): 67.0 area %
  Prodrug area %: 33.0 area %
[4]; t 247 min
  DNM area % (liberated daunomycin): 78.0 area %
  Prodrug area %: 22.0 area %
[4]; t 317 min
  DNM area % (liberated daunomycin): 87.6 area %
  Prodrug area %: 12.4 area %
